Reference: the NIST ThermoML archive (doi:10.1016/j.jct.2017.10.014)

Assays:
[1] = mn = molality of the nth substance listed, in mol/kg; details: 100 kPa, Liquid, Capillary tube (Ostwald / Ubbelohde) method
[2] = xn = mol fraction of the nth substance listed; details: 100 kPa, Liquid, Vibrating tube method

CC(C)(CO)[C@@H](O)C(=O)NCCCO [d-Panthenol] + O
Details	mass density [kg/m3]	viscosity [mPa·s]
[1], 293.15 K, m1 = 0.01	–	1.009
[1], 293.15 K, m1 = 0.05	–	1.039
[1], 293.15 K, m1 = 0.1001	–	1.078
[1], 293.15 K, m1 = 0.1989	–	1.159
[1], 293.15 K, m1 = 0.3002	–	1.246
[1], 293.15 K, m1 = 0.4006	–	1.334
[1], 293.15 K, m1 = 0.4997	–	1.421
[1], 298.15 K, m1 = 0.01	–	0.896
[1], 298.15 K, m1 = 0.05	–	0.923
[1], 298.15 K, m1 = 0.1001	–	0.957
[1], 298.15 K, m1 = 0.1989	–	1.027
[1], 298.15 K, m1 = 0.3002	–	1.1
[1], 298.15 K, m1 = 0.4006	–	1.173
[1], 298.15 K, m1 = 0.4997	–	1.253
[1], 303.15 K, m1 = 0.01	–	0.803
[1], 303.15 K, m1 = 0.05	–	0.826
[1], 303.15 K, m1 = 0.1001	–	0.855
[1], 303.15 K, m1 = 0.1989	–	0.917
[1], 303.15 K, m1 = 0.3002	–	0.98
[1], 303.15 K, m1 = 0.4006	–	1.045
[1], 303.15 K, m1 = 0.4997	–	1.105
[1], 308.15 K, m1 = 0.01	–	0.724
[1], 308.15 K, m1 = 0.05	–	0.744
[1], 308.15 K, m1 = 0.1001	–	0.769
[1], 308.15 K, m1 = 0.1989	–	0.822
[1], 308.15 K, m1 = 0.3002	–	0.877
[1], 308.15 K, m1 = 0.4006	–	0.932
[1], 308.15 K, m1 = 0.4997	–	0.99
[1], 313.15 K, m1 = 0.01	–	0.657
[1], 313.15 K, m1 = 0.05	–	0.675
[1], 313.15 K, m1 = 0.1001	–	0.697
[1], 313.15 K, m1 = 0.1989	–	0.743
[1], 313.15 K, m1 = 0.3002	–	0.791
[1], 313.15 K, m1 = 0.4006	–	0.839
[1], 313.15 K, m1 = 0.4997	–	0.887
[2], 293.15 K, x1 = 0.0036	1004.95	–
[2], 293.15 K, x1 = 0.0054	1008.18	–
[2], 293.15 K, x1 = 0.0071	1011.3	–
[2], 293.15 K, x1 = 0.0089	1014.36	–
[2], 293.15 K, x1 = 0.0107	1017.42	–
[2], 293.15 K, x1 = 0.0124	1020.22	–
[2], 293.15 K, x1 = 0.0142	1023.06	–
[2], 293.15 K, x1 = 0.0248	1039.61	–
[2], 293.15 K, x1 = 0.031	1049.02	–
[2], 293.15 K, x1 = 0.0376	1055.92	–
[2], 293.15 K, x1 = 0.0501	1068.98	–
[2], 293.15 K, x1 = 0.0996	1102.82	–
[2], 293.15 K, x1 = 0.1997	1134.36	–
[2], 293.15 K, x1 = 0.2495	1141.94	–
[2], 293.15 K, x1 = 0.2871	1146.56	–
[2], 293.15 K, x1 = 0.342	1151.05	–
[2], 293.15 K, x1 = 0.4007	1154.55	–
[2], 293.15 K, x1 = 0.4958	1158.52	–
[2], 293.15 K, x1 = 0.5944	1160.64	–
[2], 293.15 K, x1 = 0.708	1162.75	–
[2], 293.15 K, x1 = 0.8067	1163.58	–
[2], 293.15 K, x1 = 0.8753	1164.26	–
[2], 293.15 K, x1 = 1	1165.18	–
[2], 298.15 K, x1 = 0.0036	1003.69	–
[2], 298.15 K, x1 = 0.0054	1006.88	–
[2], 298.15 K, x1 = 0.0071	1009.95	–
[2], 298.15 K, x1 = 0.0089	1012.97	–
[2], 298.15 K, x1 = 0.0107	1016	–
[2], 298.15 K, x1 = 0.0124	1018.76	–
[2], 298.15 K, x1 = 0.0142	1021.57	–
[2], 298.15 K, x1 = 0.0248	1037.84	–
[2], 298.15 K, x1 = 0.031	1046.69	–
[2], 298.15 K, x1 = 0.0376	1053.81	–
[2], 298.15 K, x1 = 0.0501	1066.6	–
[2], 298.15 K, x1 = 0.0996	1099.84	–
[2], 298.15 K, x1 = 0.1997	1130.9	–
[2], 298.15 K, x1 = 0.2495	1138.2	–
[2], 298.15 K, x1 = 0.2871	1142.9	–
[2], 298.15 K, x1 = 0.342	1147.23	–
[2], 298.15 K, x1 = 0.4007	1150.87	–
